Measured values as given in PubChem BioAssay AID330 (DTP/NCI, 2004).
Where “and” joins values, the source holds several entries; their conditions need not be identical. Equal entries are not always repeated. Inconclusive results and toxic doses are left out. How the source made its calls: active means survival T/C of 150% or more; inactive means T/C below 125% in these data.

System: P388 leukemia ip, CD2F1 mice, survival T/C
Test: NCI In Vivo Anticancer Drug Screen. Data for tumor model P388 Leukemia (intraperitoneal) in CD2F1 (CDF1) mice
Conditions: endpoint: median survival time, higher = longer survival
Summary of the method: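 Mice carrying the transplanted tumor received test compound or vehicle. Survival was recorded in each group, and the value is the treated-group measurement divided by that of the vehicle-treated control group.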

[1] = dose: 50.0 mg/kg/injection, schedule: Q01DX005 (ip), vehicle: saline with Tween-80
[2] = dose: 100.0 mg/kg/injection, schedule: Q01DX005 (ip), vehicle: saline with Tween-80
[3] = dose: 200.0 mg/kg/injection, schedule: Q01DX005 (ip), vehicle: saline with Tween-80
[4] = dose: 12.5 mg/kg/injection, schedule: Q01DX009 (ip), vehicle: saline
[5] = dose: 25.0 mg/kg/injection, schedule: Q01DX009 (ip), vehicle: saline
[6] = dose: 50.0 mg/kg/injection, schedule: Q01DX009 (ip), vehicle: saline
[7] = dose: 100.0 mg/kg/injection, schedule: Q01DX009 (ip), vehicle: saline with Tween-80
[8] = dose: 200.0 mg/kg/injection, schedule: Q01DX009 (ip), vehicle: saline with Tween-80
[9] = dose: 50.0 mg/kg/injection, schedule: Q01DX009 (ip), vehicle: Klucel (hydroxypropylcellulose) (HPC)
[10] = dose: 100.0 mg/kg/injection, schedule: Q01DX009 (ip), vehicle: Klucel (hydroxypropylcellulose) (HPC)
[11] = dose: 60.0 mg/kg/injection, schedule: Q01DX005 (ip), vehicle: saline with Tween-80
[12] = dose: 120.0 mg/kg/injection, schedule: Q01DX005 (ip), vehicle: saline with Tween-80
[13] = dose: 240.0 mg/kg/injection, schedule: Q01DX005 (ip), vehicle: saline with Tween-80
[14] = dose: 6.25 mg/kg/injection, schedule: Q01DX009 (ip), vehicle: saline
[15] = dose: 200.0 mg/kg/injection, schedule: Q01DX009 (ip), vehicle: saline
[16] = dose: 50.0 mg/kg/injection, schedule: Q01DX009 (ip), vehicle: saline with Tween-80
[17] = dose: 100.0 mg/kg/injection, schedule: Q01DX009 (ip), vehicle: saline

Measured: T/C

CCOC(=O)c1ccc(NN=NCCO)cc1
inactive: dose: 12.5 mg/kg/injection, schedule: Q01DX009 (ip), vehicle: distilled water + Tween-80 97 % of control | dose: 25.0 mg/kg/injection, schedule: Q01DX009 (ip), vehicle: distilled water + Tween-80 100 % of control | dose: 50.0 mg/kg/injection, schedule: Q01DX009 (ip), vehicle: distilled water + Tween-80 100 % of control | dose: 100.0 mg/kg/injection, schedule: Q01DX009 (ip), vehicle: distilled water + Tween-80 95 % of control | dose: 200.0 mg/kg/injection, schedule: Q01DX009 (ip), vehicle: distilled water + Tween-80 118 % of control

Cc1c(N=Nc2ccccc2Cl)c(-c2ccccc2)nn1C(=S)S
inactive: [1] 111 % of control | [2] 108 % of control | [3] 111 % of control

CC(=O)OC1CCN(C)CC1CCl (configuration not stated)
inactive: [4] 110 % of control | [5] 105 % of control | [6] 105 % of control and 114 % of control

CC(C)(C)NC(=S)N/N=C/c1ccccc1O
inactive: [1] 108 % of control | [2] 109 % of control | [3] 107 % of control

Cc1cc([N+](=O)[O-])c([N+](=O)[O-])cc1Cl
inactive: dose: 50.0 mg/kg/injection, schedule: Q01DX001 (ip), vehicle: other 100 % of control | dose: 100.0 mg/kg/injection, schedule: Q01DX001 (ip), vehicle: other 100 % of control | dose: 200.0 mg/kg/injection, schedule: Q01DX001 (ip), vehicle: other 105 % of control

CC1C=CC(C)c2c(-c3ccccc3)oc(-c3ccccc3)c21 (configuration not stated)
inactive: [7] 95 % of control | [8] 104 % of control | dose: 400.0 mg/kg/injection, schedule: Q01DX009 (ip), vehicle: saline with Tween-80 108 % of control

O=C(O)c1ccc(C(=O)NCCCN(CCCCN(CCCNC(=O)c2ccc(C(=O)O)c(O)c2O)C(=O)c2ccc(C(=O)O)c(O)c2O)C(=O)c2ccc(C(=O)O)c(O)c2O)c(O)c1O
inactive: dose: 50.0 mg/kg/injection, schedule: Q01DX005 (ip), vehicle: saline 99 % of control | dose: 100.0 mg/kg/injection, schedule: Q01DX005 (ip), vehicle: saline 101 % of control | dose: 200.0 mg/kg/injection, schedule: Q01DX005 (ip), vehicle: saline 99 % of control

CC1(C)CCC(C2=CC(=O)c3c(O)ccc(O)c3C2=O)O1 (configuration not stated)
inactive: dose: 3.12 mg/kg/injection, schedule: Q01DX005 (ip), vehicle: saline with Tween-80 103 % of control | dose: 6.25 mg/kg/injection, schedule: Q01DX005 (ip), vehicle: saline with Tween-80 108 % of control | dose: 12.5 mg/kg/injection, schedule: Q01DX005 (ip), vehicle: saline with Tween-80 99 % of control

N=C(N)SCC[n+]1cccc2cccc(O)c21
inactive: dose: 100.0 mg/kg/injection, schedule: Q04DX002 (ip), vehicle: saline 98 % of control | dose: 200.0 mg/kg/injection, schedule: Q04DX002 (ip), vehicle: saline 100 % of control

N=C(/C(=C/c1cccc2ccccc12)c1ccccc1)c1ccccc1
inactive: [9] 98 % of control | [10] 104 % of control | dose: 200.0 mg/kg/injection, schedule: Q01DX009 (ip), vehicle: Klucel (hydroxypropylcellulose) (HPC) 108 % of control

N#Cc1c(Cl)c(Cc2ccccc2)c(Cl)n2c1nc1ccccc12
inactive: [11] 100 % of control | [12] 108 % of control | [13] 99 % of control

COc1ccc(CCn2cnn3c(=O)c4ccccc4nc3c2=O)cc1OC
inactive: [11] 99 % of control | [12] 92 % of control

CC(=O)N([Si](C)(C)C)[Si](C)(C)C
inactive: [14] 88 % of control and 96 % of control | [4] 100 % of control and 109 % of control and 86 % of control | [5] 101 % of control and 86 % of control and 93 % of control | [15] 100 % of control

NC(CS)C(=O)NCC(=O)O (configuration not stated)
inactive: dose: 50.0 mg/kg/injection, schedule: Q01DX009 (ip), vehicle: distilled water + alcohol 109 % of control | dose: 100.0 mg/kg/injection, schedule: Q01DX009 (ip), vehicle: distilled water + alcohol 98 % of control | dose: 200.0 mg/kg/injection, schedule: Q01DX009 (ip), vehicle: distilled water + alcohol 92 % of control

CC(=O)Nc1ccc(C(C)=O)cc1
inactive: [16] 93 % of control | [7] 89 % of control | [8] 94 % of control

CC1(C)CCc2c(cc3c(c2O)CCC(C)(C)O3)O1
inactive: [11] 109 % of control | [12] 117 % of control | [13] 100 % of control

CSc1cccc2c(NCCCCCCCCNc3c4ccccc4nc4c(SC)cccc34)c3ccccc3nc12
inactive: dose: 0.32 mg/kg/injection, schedule: Q01DX009 (ip), vehicle: other 101 % of control | dose: 0.63 mg/kg/injection, schedule: Q01DX009 (ip), vehicle: other 104 % of control | dose: 1.25 mg/kg/injection, schedule: Q01DX009 (ip), vehicle: other 113 % of control | dose: 2.5 mg/kg/injection, schedule: Q01DX009 (ip), vehicle: other 113 % of control | dose: 5.0 mg/kg/injection, schedule: Q01DX009 (ip), vehicle: other 109 % of control | dose: 10.0 mg/kg/injection, schedule: Q01DX009 (ip), vehicle: other 111 % of control

Cc1[nH]c2cc(Br)ccc2c1/C=N/NC(N)=S
inactive: dose: 100.0 mg/kg/injection, schedule: Q01DX001 (ip), vehicle: Klucel (hydroxypropylcellulose) (HPC) 107 % of control

C/C(=C1/N=C(c2ccccc2)OC1=O)c1ccc(C)cc1
inactive: dose: 50.0 mg/kg/injection, schedule: Q01DX005 (ip), vehicle: Klucel (hydroxypropylcellulose) (HPC) 106 % of control | dose: 100.0 mg/kg/injection, schedule: Q01DX005 (ip), vehicle: Klucel (hydroxypropylcellulose) (HPC) 90 % of control | dose: 200.0 mg/kg/injection, schedule: Q01DX005 (ip), vehicle: Klucel (hydroxypropylcellulose) (HPC) 106 % of control

O=c1c(Cl)c(Cl)c(=O)c2sc3cc(Cl)ccc3[nH]c1=2
inactive: [6] 98 % of control | [17] 102 % of control | [15] 101 % of control

COc1ccc(NC(=S)Nc2ccccn2)cc1
inactive: dose: 100.0 mg/kg/injection, schedule: Q04DX003 (ip), vehicle: saline with Tween-80 108 % of control | dose: 200.0 mg/kg/injection, schedule: Q04DX003 (ip), vehicle: saline with Tween-80 95 % of control | dose: 400.0 mg/kg/injection, schedule: Q04DX003 (ip), vehicle: saline with Tween-80 112 % of control

C=CCCCn1nc(-c2ccccc2)c(-c2ccccc2)n1
inactive: [16] 106 % of control | [7] 100 % of control | [8] 103 % of control

Cc1ccc(SC(=O)N2CCN(C(=O)Sc3ccc(C)cc3)CC2)cc1
inactive: [9] 93 % of control | [10] 89 % of control

CNC(=O)NC1OC(CO)C(O)C1O (configuration not stated)
inactive: dose: 100.0 mg/kg/injection, schedule: Q01DX001 (ip), vehicle: water 97 % of control | dose: 200.0 mg/kg/injection, schedule: Q01DX001 (ip), vehicle: water 103 % of control | dose: 400.0 mg/kg/injection, schedule: Q01DX001 (ip), vehicle: water 104 % of control

CC1=[N+]([O-])[N+]([O-])=C(c2ccccc2)C1=O
inactive: dose: 25.0 mg/kg/injection, schedule: Q01DX009 (ip), vehicle: saline with Tween-80 107 % of control | [16] 92 % of control | [7] 107 % of control

O=C(Nc1ccc(CSc2ccc(Cl)cc2)o1)N1CCOCC1
inactive: [1] 107 % of control | [2] 99 % of control | [3] 98 % of control

C=CCn1c(=O)n(CC=C)c(=O)n(CCOC(=O)COc2ccc(Cl)cc2Cl)c1=O
inactive: [6] 108 % of control | [17] 112 % of control | [15] 94 % of control

CCSC(CC(C)=O)c1ccccc1 (configuration not stated)
inactive: [16] 108 % of control | [7] 116 % of control | [8] 105 % of control

CCCCCCCCCCCC[N+]1(CC)CCCC1
inactive: dose: 1.56 mg/kg/injection, schedule: Q01DX009 (ip), vehicle: saline 100 % of control | dose: 3.12 mg/kg/injection, schedule: Q01DX009 (ip), vehicle: saline 98 % of control and 92 % of control | [14] 86 % of control

CC1(C)OC(CC(=O)O)C23COC(C(=O)C4(C)C2CCC2(C)C(C5CCOC5)OC(=O)C5OC524)C13 (configuration not stated)
inactive: dose: 0.5 mg/kg/injection, schedule: Q01DX009 (ip), vehicle: saline + alcohol 103 % of control | dose: 1.0 mg/kg/injection, schedule: Q01DX009 (ip), vehicle: saline + alcohol 101 % of control | dose: 2.0 mg/kg/injection, schedule: Q01DX009 (ip), vehicle: saline + alcohol 100 % of control | dose: 4.0 mg/kg/injection, schedule: Q01DX009 (ip), vehicle: saline + alcohol 103 % of control
